Tested on: obese diabetic mice of the Umeå ob/ob strain
Experiment: Biological activity in obese diabetic ob/ob mice (plasma glucose, insulin, triglycerides; weight gain)
Format: in vivo
Details: gavage once daily for 7 days
Method: The biological activity of the compound of the invention was tested in obese diabetic mice of the Umea ob/ob strain. Groups of mice received the test compound by gavage once daily for 7 days. On the last day of the experiment the animals were anesthetized 2h after dose in a non-fed state and blood was collected from an incised artery. Plasma was analyzed for concentration of glucose, insulin and triglycerides. A group of untreated obese diabetic mice of the same age served as control. The weight of the mice was measured before and after the experiment and the obtained weight gain was compared to the weight gain of the control animals. The individual values for glucose, insulin and triglyceride levels of the mice from the test group were expressed as the percent rage of the corresponding values from the control group.
The desired “therapeutic effect” was calculated as the average percent reduction of the three variables glucose, insulin and triglycerides below the levels in the control animals. The therapeutic effect of the tested compounds according to the invention was compared to the same effect in the prior art compound troglitazone, administrered by gavage in the oral dose of 100 μmol/kg for 7 days.

CCO[C@@H](Cc1ccc(OCCc2ccc(OS(C)(=O)=O)cc2)cc1)C(=O)O [Example 1, (S)-2-Ethoxy-3-[4-(2-{4-methanesulfonyloxyphenyl}ethoxy)phenyl]propanoic acid]
therapeutic effect (average percent reduction of glucose, insulin and triglycerides below the levels in the control animals) (plasma 2h after last dose, non-fed, compared to troglitazone given in the same oral dose (100 μmol/kg for 7 days)): superior effects
weight gain compared to the weight gain of the control animals (weight measured before and after the experiment): without undesirable weight gain
